Laboratory results as given in patent publication US20080171732A1, “New Pyridine Analogues IX 519” (AstraZeneca AB, priority 2007, published 2008).

Each molecule was assayed against T1, P2Y12 receptor (Homo sapiens, UniProt Q9H244) (assay: Functional inhibition of 2-Me-S-ADP induced P2Y12 signalling (35S-GTPγS, cell membranes from P2Y12 transfected CHO-cells)). Conditions: EC80 concentration of agonist 2-methyl-thio-adenosine diphosphate, 30° C., 45 min.
T1 construct: expressed in transfected cells; host or cells: CHO cells (membranes)
T1 sequence (Q9H244 whole entry): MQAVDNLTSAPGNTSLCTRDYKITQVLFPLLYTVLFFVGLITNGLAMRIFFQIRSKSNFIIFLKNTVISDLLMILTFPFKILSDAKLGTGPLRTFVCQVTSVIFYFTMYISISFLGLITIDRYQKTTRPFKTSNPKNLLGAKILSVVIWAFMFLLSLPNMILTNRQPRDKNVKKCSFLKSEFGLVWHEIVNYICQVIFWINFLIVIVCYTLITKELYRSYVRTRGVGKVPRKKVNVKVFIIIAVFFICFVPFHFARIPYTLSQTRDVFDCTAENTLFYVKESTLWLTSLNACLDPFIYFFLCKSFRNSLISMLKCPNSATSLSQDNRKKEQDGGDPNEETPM
Type: biochemical
Method: Functional inhibition of-the P2Y12 receptor can be measured by in vitro assays using cell membranes from P2Y12 transfected CHO-cells, the methodology is indicated below.
(§1) Functional inhibition of 2-Me-S-ADP induced P2Y12 signalling: 5 μg of membranes were diluted in 200 μl of 200 mM NaCl, 1 mM MgCl2, 50 mM HEPES (pH 7.4), 0.01% BSA, 30μg/ml saponin and 10 μM GDP. To this was added an EC80 concentration of agonist (2-methyl-thio-adenosine diphosphate), the required concentration of test compound and 0.1 μCi ^35S-GTPγS. The reaction was allowed to proceed at 30° C. for 45 min. Samples were then transferred on to GF/B filters using a cell harvester and washed with wash buffer (50 mM Tris (pH 7.4), 5 mM MgCl2, 50 mM NaCl). Filters were then covered with scintilant and counted for the amount of ^35S-GTPγS retained by the filter. Maximum activity was that determined in the presence of the agonist and minimum activity in the absence of the agonist following subtraction of the value determined for non-specific activity. The effect of compounds at various concentrations was plotted according to the equation
y=A+((B−A)/(1+((C/x)̂D)))
and IC50 estimated where • A is the bottom plateau of the curve i.e. the final minimum y value • B is the top of the plateau of the curve i.e. the final maximum y value • C is the x value at the middle of the curve. This represents the log EC50 value when A+B=100 • D is the slope factor. • x is the original known x values. • Y is the original known y values.
as §1, with “30 μg/ml” for “30μg/ml”, “0. 1” for “0.1”

Row | Molecule | IC50 [µM]
1 | CCOC(=O)c1cc(C#N)c(N2CC(C(=O)NS(=O)(=O)Cc3ccccc3)C2)nc1OC [Example 2, Ethyl6-{3-[(benzylsulfonyl)carbamoyl]azetidin-1-yl}-5-cyano-2-methoxynicotinate] | 0.018
2 | CCOC(=O)c1cc(C#N)c(N2CCC(C(=O)NS(=O)(=O)Cc3ccccc3F)CC2)nc1OC [Example 8, Ethyl5-cyano-6-(4-{[(2-fluorobenzyl)sulfonyl]carbamoyl}piperidin-1-yl)-2-methoxynicotinate] | 0.01
3 | CCOC(=O)c1cc(C#N)c(N2CC(C(=O)NS(=O)(=O)Cc3ccc(F)cc3)C2)nc1OCC [Example 39, Ethyl5-cyano-2-ethoxy-6-(3-{[(4-fluorobenzyl)sulfonyl]carbamoyl}azetidin-1-yl)nicotinate] | 0.032
4 | CCOC(=O)c1cc(C#N)c(N2CCC(C(=O)NS(=O)(=O)Cc3ccccc3)CC2)nc1Cn1ccnc1 [Example 49, Ethyl6-{4-[(benzylsulfonyl)carbamoyl]piperidin-1-yl}-5-cyano-2-(1H-imidazol-1-ylmethyl)nicotinate] | 0.073
5 | CCOCc1nc(N2CCC(C(=O)NS(=O)(=O)Cc3ccccc3)CC2)c(C#N)cc1C(=O)OCC [Example 34, Ethyl6-{4-[(benzylsulfonyl)carbamoyl]piperidin-1-yl}-5-cyano-2-(ethoxymethyl)nicotinate] | 0.034
6 | CCOC(=O)c1cc(C#N)c(N2CCC(C(=O)NS(=O)(=O)Cc3ccccc3)CC2)nc1Cn1ccnn1 [Example 48] | 0.032
7 | CCOC(=O)c1cc(C#N)c(N2CC(C(=O)NS(=O)(=O)Cc3ccc(Cl)cc3)C2)nc1OC [Example 25, Ethyl6-(3-{[(4-chlorobenzyl)sulfonyl]carbamoyl}azetidin-1-yl)-5-cyano-2-methoxynicotinate] | 0.006
8 | CCCC(=O)c1cc(C#N)c(N2CCC(C(=O)NS(=O)(=O)Cc3ccccc3)CC2)nc1OC [Example 53, N-(Benzylsulfonyl)-1-(5-butyryl-3-cyano-6-methoxypyridin-2-yl)piperidine-4-carboxamide] | 0.076
9 | CCOC(=O)c1cc(Cl)c(N2CCC(C(=O)NS(=O)(=O)Cc3ccc(Cl)cc3)CC2)nc1SC [Example 43, Ethyl5-chloro-6-(4-{[(4-chlorobenzyl)sulfonyl]carbamoyl}piperidin-1-yl)-2-(methylthio)nicotinate] | 0.132
10 | CCOC(=O)c1cc(C#N)c(N2CC(C(=O)NS(=O)(=O)c3ccccc3)C2)nc1OC [Example 20, Ethyl5-cyano-2-methoxy-6-{3-[(phenylsulfonyl)carbamoyl]azetidin-1-yl}nicotinate] | 0.102
11 | CCOC(=O)c1cc(C#N)c(N2CC(C(=O)NS(=O)(=O)Cc3ccc(F)cc3)C2)nc1OC [Example 24, Ethyl5-cyano-6-(3-{[(4-fluorobenzyl)sulfonyl]carbamoyl}azetidin-1-yl)-2-methoxynicotinate] | 0.009
12 | CCOC(=O)c1cc(C#N)c(N2CC(C(=O)NS(=O)(=O)Cc3ccccc3)C2)nc1COCc1ccc(OC)c(OC)c1 [Example 42, Ethyl6-{3-[(benzylsulfonyl)carbamoyl]azetidin-1-yl}-5-cyano-2-{[(3,4-dimethoxybenzyl)oxy]methyl}nicotinate] | 0.135
13 | CCOC(=O)c1cc(C#N)c(N2CCC(C(=O)NS(=O)(=O)Cc3ccccc3)CC2)nc1CCOC [Example 45, Ethyl6-{4-[(benzylsulfonyl)carbamoyl]piperidin-1-yl}-5-cyano-2-(2-methoxyethyl)nicotinate] | 0.06
14 | CCOC(=O)c1cc(C#N)c(N2CC(C(=O)NS(=O)(=O)Cc3ccc(Cl)cc3F)C2)nc1OC [Example 31, Ethyl6-(3-{[(4-chloro-2-fluorobenzyl)sulfonyl]carbamoyl}azetidin-1-yl)-5-cyano-2-methoxynicotinate] | 0.005
15 | CCOC(=O)c1cc(C#N)c(N2CCC(C(=O)NS(=O)(=O)Cc3ccccc3)CC2)nc1OC [Example 1, Ethyl6-{4-[(benzylsulfonyl)carbamoyl]piperidin-1-yl}-5-cyano-2-methoxynicotinate] | 0.012
16 | CCOC(=O)c1cc(C#N)c(N2CCC(C(=O)NS(=O)(=O)Cc3cccc(F)c3F)CC2)nc1OC [Example 19, Ethyl5-cyano-6-(4-{[(2,3-difluorobenzyl)sulfonyl]carbamoyl}piperidin-1-yl)-2-methoxynicotinate] | 0.031
17 | CCOC(=O)c1cc(C#N)c(N2CC(C(=O)NS(=O)(=O)Cc3ccccc3)C2)nc1OCC [Example 38, Ethyl6-{3-[(benzylsulfonyl)carbamoyl]azetidin-1-yl}-5-cyano-2-ethoxynicotinate] | 0.047
18 | CCOC(=O)c1cc(C#N)c(N2CCC(C(=O)NS(=O)(=O)Cc3ccccc3)CC2)nc1C#N [Example 5, Ethyl6-{4-[(benzylsulfonyl)carbamoyl]piperidin-1-yl}-2,5-dicyanonicotinate] | 0.009

Further molecules by falling IC50, results first:

Row | IC50 [µM] | Molecule
19 | 0.077 | CCOC(=O)c1cc(C#N)c(N2CCC(C(=O)NS(=O)(=O)Cc3ccccc3)CC2)nc1Cn1cncn1 [Example 47, Ethyl6-{4-[(benzylsulfonyl)carbamoyl]piperidin-1-yl}-5-cyano-2-(1H-1,2,4-triazol-1-ylmethyl)nicotinate]
20 | 0.055 | CCOC(=O)c1cc(C#N)c(N2CCC(C(=O)NS(=O)(=O)Cc3ccccc3)CC2)nc1COCc1ccccc1 [Example 36, Ethyl2-[(benzyloxy)methyl]-6-{4-[(benzylsulfonyl)carbamoyl]piperidin-1-yl}-5-cyanonicotinate]
21 | 0.048 | CCOC(=O)c1cc(F)c(N2CCC(C(=O)NS(=O)(=O)Cc3ccccc3)CC2)nc1Cl [Example 46, Ethyl6-{4-[(benzylsulfonyl)carbamoyl]piperidin-1-yl}-2-chloro-5-fluoronicotinate]
22 | 0.032 | CCOC(=O)c1cc(C#N)c(N2CCC(C(=O)NS(=O)(=O)Cc3ccccc3Cl)CC2)nc1OC [Example 9, Ethyl6-(4-{[(2-chlorobenzyl)sulfonyl]carbamoyl}piperidin-1-yl)-5-cyano-2-methoxynicotinate]
23 | 0.024 | CCOC(=O)c1cc(C#N)c(N2CCC(C(=O)NS(=O)(=O)Cc3ccc(F)cc3Cl)CC2)nc1OC [Example 17, Ethyl6-(4-{[(2-chloro-4-fluorobenzyl)sulfonyl]carbamoyl}piperidin-1-yl)-5-cyano-2-methoxynicotinate]
24 | 0.022 | CCOC(=O)c1cc(C#N)c(N2CCC(C(=O)NS(=O)(=O)Cc3ccc(Cl)cc3Cl)CC2)nc1OC [Example 15, Ethyl5-cyano-6-(4-{[(2,4-dichlorobenzyl)sulfonyl]carbamoyl}piperidin-1-yl)-2-methoxynicotinate]
25 | 0.019 | CCOC(=O)c1cc(C#N)c(N2CCC(C(=O)NS(=O)(=O)Cc3ccc(C(F)(F)F)cc3)CC2)nc1OC [Example 13, Ethyl5-cyano-2-methoxy-6-[4-({[4-(trifluoromethyl)benzyl]sulfonyl}carbamoyl)piperidin-1-yl]nicotinate]
26 | 0.015 | Ethyl5-cyano-6-(3-{[(2-fluorobenzyl)sulfonyl]carbamoyl}azetidin-1-yl)-2-methoxynicotinate [Example 21]
27 | 0.013 | CCOC(=O)c1cc(C#N)c(N2CCC(C(=O)NS(=O)(=O)Cc3ccc(F)c(F)c3)CC2)nc1OC [Example 14, Ethyl5-cyano-6-(4-{[(3,4-difluorobenzyl)sulfonyl]carbamoyl}piperidin-1-yl)-2-methoxynicotinate]
28 | 0.012 | CCOC(=O)c1cc(C#N)c(N2CC(C(=O)NS(=O)(=O)Cc3ccc(C(F)(F)F)cc3)C2)nc1OC [Example 26, Ethyl5-cyano-2-methoxy-6-[3-({[4-(trifluoromethyl)benzyl]sulfonyl}carbamoyl)azetidin-1-yl]nicotinate]
29 | 0.01 | CCOC(=O)c1cc(C#N)c(N2CCC(C(=O)NS(=O)(=O)Cc3ccc(Cl)cc3F)CC2)nc1OC [Example 18, Ethyl6-(4-{[(4-chloro-2-fluorobenzyl)sulfonyl]carbamoyl}piperidin-1-yl)-5-cyano-2-methoxynicotinate]
30 | 0.01 | CCOC(=O)c1cc(C#N)c(N2CC(C(=O)NS(=O)(=O)Cc3ccc(F)cc3F)C2)nc1OC [Example 29, Ethyl5-cyano-6-(3-{[(2,4-difluorobenzyl)sulfonyl]carbamoyl}azetidin-1-yl)-2-methoxynicotinate]
31 | 0.009 | CCOC(=O)c1cc(C#N)c(N2CCC(C(=O)NS(=O)(=O)Cc3ccc(Cl)cc3)CC2)nc1OC [Example 12, Ethyl6-(4-{[(4-chlorobenzyl)sulfonyl]carbamoyl}piperidin-1-yl)-5-cyano-2-methoxynicotinate]
